Earlier results in publication PMC10485003, “Antibiotic hyper-resistance in a class I aminoacyl-tRNA synthetase with altered active site signature motif” (Nature Communications, 2023).

Test system: IleRS
Set-up: method as in PMID 18234501
Settings: monic acid A alone, without the nonanoic acid part; cited from earlier work

Which inhibitor activity does the source give for `CC(=CC(=O)O)CC1OCC(CC2OC2C(C)C(C)O)C(O)C1O` (stereo not shown) [monic acid A] here?
Its inhibitor activity is “cannot act as an inhibitor”.
